Experimental data as given in PubChem BioAssay (NCI).
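A five-concentration, 48-hour dose response in 96-well plates underlies each endpoint, interpolated linearly between surrounding concentrations. GI50: concentration for 50% inhibition of growth. Definition used: TGI = concentration required for complete inhibition of growth.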

Experiments:
Experiment in all cases: DTP human tumour cell line panel, 48 h
[1] = tested on: SR leukemia
[2] = tested on: NCI-H226 lung
[3] = tested on: SN12C renal
[4] = tested on: RXF 393 renal
[5] = tested on: DU-145 prostate
[6] = tested on: HOP-92 NSCLC
[7] = tested on: SNB-19 CNS
[8] = tested on: SF-295 CNS
[9] = tested on: OVCAR-3 ovarian
[10] = tested on: 786-0 renal
[11] = tested on: TK-10 renal
[12] = tested on: UACC-62 melanoma
[13] = tested on: IGROV1 ovarian
[14] = tested on: SK-MEL-2 melanoma
[15] = tested on: RPMI-8226 leukemia
[16] = tested on: COLO 205 colon
[17] = tested on: EKVX NSCLC
[18] = tested on: OVCAR-4 ovarian
[19] = tested on: CAKI-1 renal
[20] = tested on: UACC-257 melanoma
[21] = tested on: HT29 colon
[22] = tested on: HOP-62 NSCLC
[23] = tested on: BT-549 breast
[24] = tested on: A498 renal
[25] = tested on: SNB-75 CNS
[26] = tested on: NCI/ADR-RES ovarian
[27] = tested on: MOLT-4 leukemia
[28] = tested on: SF-539 CNS
[29] = tested on: CCRF-CEM leukemia
[30] = tested on: M14 melanoma
[31] = tested on: HCT-116 colon
[32] = tested on: MDA-MB-435
[33] = tested on: HCT-15 colon
[34] = tested on: OVCAR-8 ovarian
[35] = tested on: HCC-2998 colon
[36] = tested on: MDA-MB-231 breast
[37] = tested on: A549 NSCLC
[38] = tested on: SF-268 CNS
[39] = tested on: NCI-H460 lung
[40] = tested on: OVCAR-5 ovarian
[41] = tested on: T-47D breast
[42] = tested on: HS 578T breast
[43] = tested on: SW-620 colon
[44] = tested on: UO-31 renal
[45] = tested on: NCI-H522 lung
[46] = tested on: LOX IMVI melanoma
[47] = tested on: U251 CNS
[48] = tested on: KM12 colon
[49] = tested on: SK-MEL-28 melanoma
[50] = tested on: MALME-3M melanoma
[51] = tested on: HL-60(TB) leukemia
[52] = tested on: MCF7 breast
[53] = tested on: SK-OV-3 ovarian
[54] = tested on: NCI-H23 lung
[55] = tested on: PC-3 prostate
[56] = tested on: K-562 leukemia
[57] = tested on: SK-MEL-5 melanoma
[58] = tested on: ACHN renal

CS(=O)(=O)Nc1cc(-c2ccc3ncnc(Nc4ccc5c(cnn5Cc5ccccc5F)c4)c3c2)cnc1Cl
GI50 [1]: 3860 nM | TGI [1]: > 100000 nM | GI50 [2]: 1740 nM | TGI [2]: 11300 nM | GI50 [3]: 1130 nM | TGI [3]: > 100000 nM | GI50 [4]: 1410 nM | TGI [4]: 5850 nM | GI50 [5]: 2000 nM | TGI [5]: > 38200 nM | GI50 [6]: 131 nM | GI50 [7]: 1770 nM | TGI [7]: > 55500 nM | GI50 [8]: 1960 nM | TGI [8]: 8510 nM | GI50 [9]: 795 nM | TGI [9]: 3130 nM | GI50 [10]: 1840 nM | TGI [10]: > 100000 nM | GI50 [11]: 1280 nM | TGI [11]: 5440 nM | GI50 [12]: 1470 nM | TGI [12]: 5370 nM | GI50 [13]: 575 nM | TGI [13]: 4310 nM | GI50 [14]: 1520 nM | TGI [14]: 4650 nM | GI50 [15]: 1640 nM | TGI [15]: 4180 nM | GI50 [16]: 2390 nM | TGI [16]: 9090 nM | GI50 [17]: 1690 nM | TGI [17]: 9530 nM | GI50 [18]: 3000 nM | TGI [18]: > 100000 nM | GI50 [19]: 1710 nM | TGI [19]: 5620 nM | GI50 [20]: 1510 nM | TGI [20]: 9000 nM | GI50 [21]: 1600 nM | TGI [21]: > 47300 nM | GI50 [22]: 457 nM | TGI [22]: > 100000 nM | GI50 [23]: 1570 nM | TGI [23]: 8730 nM | GI50 [24]: 1050 nM | TGI [24]: 3710 nM | GI50 [25]: 157 nM | TGI [25]: 2400 nM | GI50 [26]: 8320 nM | TGI [26]: > 100000 nM | GI50 [27]: 1540 nM | TGI [27]: 7480 nM | GI50 [28]: 1090 nM | TGI [28]: 4900 nM | GI50 [29]: 634 nM | TGI [29]: > 31200 nM | GI50 [30]: 2660 nM | TGI [30]: 15600 nM | GI50 [31]: 2080 nM | TGI [31]: > 33700 nM | GI50 [32]: 2350 nM | TGI [32]: 8320 nM | GI50 [33]: 3280 nM | TGI [33]: 55000 nM | GI50 [34]: 2720 nM | TGI [34]: > 100000 nM | GI50 [35]: 2200 nM | TGI [35]: 8460 nM | GI50 [36]: 1510 nM | TGI [36]: > 100000 nM | GI50 [37]: 2870 nM | TGI [37]: > 53700 nM | GI50 [38]: 1310 nM | TGI [38]: 9180 nM | GI50 [39]: 2100 nM | TGI [39]: 58000 nM | GI50 [40]: 2220 nM | TGI [40]: > 100000 nM | GI50 [41]: 367 nM | TGI [41]: 3140 nM | GI50 [42]: 249 nM | TGI [42]: 1840 nM | GI50 [43]: 1940 nM | TGI [43]: > 35900 nM | GI50 [44]: 3230 nM | TGI [44]: > 100000 nM | GI50 [45]: 1180 nM | TGI [45]: 8030 nM | GI50 [46]: 1690 nM | TGI [46]: 4710 nM | GI50 [47]: 2110 nM | TGI [47]: 14400 nM | GI50 [48]: 2480 nM | TGI [48]: 8100 nM | GI50 [49]: 771 nM | TGI [49]: 6590 nM | GI50 [50]: 466 nM | TGI [50]: 3000 nM | GI50 [51]: 1020 nM | TGI [51]: 6020 nM | GI50 [52]: 1480 nM | TGI [52]: 30300 nM | GI50 [53]: 845 nM | TGI [53]: 3960 nM | GI50 [54]: 2810 nM | TGI [54]: > 100000 nM | GI50 [55]: 1310 nM | TGI [55]: > 23600 nM | GI50 [56]: 2270 nM | TGI [56]: > 100000 nM | GI50 [57]: 1760 nM | TGI [57]: 3280 nM | GI50 [58]: 3240 nM | TGI [58]: > 52900 nM
